Measured values from patent publication US7238689B2, “Isoxazoline derivative and herbicide comprising the same as active ingredient” (Ihara Chemical Industry Co., Ltd., priority 2001, dated 2007).

Key:
[1] = test system: Setaria viridis (L.) Beauv.; experiment: Herbicidal effect by upland field soil treatment; format: in vivo; design: scale not given here; details: active ingredient 1000 g/ha, examined at 21st day from treatment
Description: (§1) An upland field soil was filled in a plastic pot of 80 cm^2. Seeds of Echinochloa crus-galli (L.) Beauv. var. crusgalli and Setaria viridis (L.) Beauv. were sowed, followed by covering with the same soil. […] Then, breeding was made in a greenhouse, and the herbicidal effect of each wettable powder was examined at the 21st day from the treatment in accordance with the standard shown in Table 21.

[2] = test system: Echinochloa crus-galli (L.) Beauv. var. crusgalli; experiment: Herbicidal effect by upland field soil treatment; format: in vivo; design: scale not given here; details: active ingredient 1000 g/ha, examined at 21st day from treatment
Description: as §1

[3] = test system: Echinochloa crus-galli (L.) Beauv. var. crus-galli; experiment: Herbicidal effect by upland foliage treatment; format: in vivo; design: scale not given here; details: active ingredient 1000 g/ha, examined at 14th day from treatment
In short: (§2)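 Two-week-old greenhouse plants in sand were sprayed over the whole foliage with water-diluted wettable powder at 1,000 liters per hectare, giving 1,000 g active ingredient per hectare. Herbicidal effect scored on a rating standard at day 14 after treatment.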

[4] = test system: Setaria viridis (L.) Beauv.; experiment: Herbicidal effect by upland foliage treatment; format: in vivo; design: scale not given here; details: active ingredient 1000 g/ha, examined at 14th day from treatment
In short: as §2

[5] = test system: Monochoria vaginalis (Murm. f.) Presl var. plantaginea (Roxb.) Solms-Laub.; experiment: Herbicidal effect by paddy field soil treatment; format: in vivo; design: scale not given here; details: wettable powder, active ingredient 1000 g/ha, examined at the 21st day from the treatment
In short: (§3)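 Seeds sown in puddled paddy soil under 3 cm of water; the next day wettable powders diluted in water were dropped onto the water surface at 1,000 g active ingredient/ha. Plants grown in a greenhouse, with herbicidal effect scored on day 21 against a rating standard.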

[6] = test system: Echinochloa oryzicola Vasing; experiment: Herbicidal effect by paddy field soil treatment; format: in vivo; design: scale not given here; details: wettable powder, active ingredient 1000 g/ha, examined at the 21st day from the treatment
In short: as §3

Structure (SMILES) | herbicidal effect (index per standard of Table 21), Setaria viridis (L.) Beauv. [1] | herbicidal effect (index per standard of Table 21), Echinochloa curs-galli (L.) Beauv. Var. crus-galli [2] | melting point [°C] | herbicidal effect (index per standard of Table 21), Echinochloa curs-galli (L.) Beauv. Var. crus-galli [3] | herbicidal effect (index per standard of Table 21), Setaria viridis (L.) Beauv. [4] | Herbicidal effect index, Monochoria vaginalis (Burm. F.) Presl var. plantaginea (Roxb.) Solms-Laub. [5] | Herbicidal effect index, Echinochloa oryzicola Vasing [6]
CON=C(C)c1c(C)sc(C)c1CS(=O)(=O)C1=NOC(C)(C)C1 [2-0001, 5,5-dimethyl-3-[2,5-dimethyl-4-(1-methoxyiminoethyl)-thiophen-3-ylmethylsulfonyl]-2-isoxazoline] | 5 | 5 | 95 to 96 | 5 | 4 | 5 | 5
CC1(C)CC(SCc2c(C(F)(F)F)nn(C(F)F)c2Cl)=NO1 [3-0008, 3-(5-chloro-1-difluoromethyl-3-trifluoromethyl-1H-pyrazol-4-ylmethylthio)-5,5-dimethyl-2-isoxazoline] | 5 | 5 | 41 to 42 | 4 | 4 | – | –
COc1c(CS(=O)(=O)C2=NOC(C)(C)C2)c(C(F)(F)F)nn1C [3-0013, 5,5-dimethyl-3-(5-methoxy-1-methyl-3-trifluoromethyl-1H-pyrazol-4-ylmethylsulfonyl)-2-isoxazoline] | 5 | 5 | 113 to 114 | 5 | 5 | 5 | 5
Cn1nc(C(F)(F)F)c(CS(=O)(=O)C2=NOC(C)(C)C2)c1OC1CCCC1 [3-0015, 3-(5-cyclopentyloxy-1-methyl-3-trifluoromethyl-1H-pyrazol-4-ylmethylsulfonyl)-5,5-dimethyl-2-isoxazoline] | 5 | 5 | 113 to 114 | 5 | 4 | 5 | 5
